Values quoted from earlier work as cited in patent publication US20130225598A1, “Stabilized Amorphous Forms of Imatinib Mesylate” (Novartis AG, priority 2007, published 2013).

Conditions: at temperatures below 140 ° C.

In the case of CS(=O)(=O)O.Cc1ccc(NC(=O)c2ccc(CN3CCN(C)CC3)cc2)cc1Nc1nccc(-c2cccnc2)n1 [4-(4-methylpiperazin-1-ylmethyl)-N-[4-methyl-3-(4-(pyridin-3-yl)-pyrimidin-2-ylamino-)phenyl]-benzamide mesylate], the “thermodynamic stability relative to alpha crystal form” value is listed as “thermodynamically more stable than the alpha form”.
